Assay results: patent US20120264830A1, “CHONDROITIN SULFATE-POLYCAPROLACTONE COPOLYMER, METHOD FOR PREPARING THE SAME AND APPLICATION THEREOF” (KAOHSIUNG MEDICAL UNIVERSITY, priority 2011, published 2012)

System: lung cancer cell CRL-5802
Assay: Cytotoxicity test of the medical composition and of camptothecin (MTT)
Format: cell-based
Settings: CRL-5802 cells, camptothecin concentration 1 μg/mL, treatment time 24 hours
Description: 5000 cells/well of CRL-5802 were placed in a 96-well plate containing 100 μL of DMEM, followed by cultivation for 24 hours at 37° C. and 5% CO2. The cell culture medium was periodically replaced during the cultivation period. Thereafter, the medical composition described in the section of “Preparation of medical composition” was mixed with DMEM to prepare an original solution having a concentration of 250 μg/mL (the concentration of camptothecin was 10 μg/mL). The original solution was diluted with DMEM to obtain six diluted solutions such that the concentrations of camptothecin in the six diluted solutions were respectively 4 μg/mL, 2 μg/mL, 1 μg/mL, 0.2 μg/mL, 0.1 μg/mL and 0.04 μg/mL. The original solution and the six diluted solutions were added into the respective wells containing cell s such that the final concentrations of camptothecin were adjusted to 5 μg/mL, 2 μg/mL, 1 μg/mL, 0.5 μg/mL, 0.1 μg/mL, 0.05 μg/mL, and 0.02 μg/mL respectively (experimental groups). The cells in the control group were cultured with DMEM without addition of the medical composition. The cells were further cultivated for 24 hours. […] The absorbance of each of the wells containing cells at 490 nm was recorded, thereby calculating the cell survival rate based on the aforesaid equation. […]

`CC[C@@]1(O)C(=O)OCc2c1cc1n(c2=O)Cc2cc3ccccc3nc2-1` [camptothecin] gave a cell survival rate of 30%.
